The source of these data is US5741476A, “Polyhydric phenol compounds” (Mallinckrodt Medical, Inc., priority 1992, dated 1998).

Read-outs that look alike come from different tables or passages of the source. Bounds are passed on as bounds.

A short description of data set [1]: in vivo distribution in rats. The protocol:
The in vivo distribution in rats is determined by injecting approx. 10 μCi of the compound to be evaluated into the tail vein of the test animals. The test animals are sacrificed at appropriate time intervals after injection and the radioactivity of the organs of interest is measured by gamma scintillation counting.

Another data set deals with YAK1 mice lymphoma cells. Kind of data set: binding of 3-125I-phloretin to YAK1 lymphoma cells. The protocol: (§1) In order to be able to compare the binding to cancer cells with the binding to normal cells, the following experiments are carried out. Binding to certain cancer cells, viz. YAK1 mice lymphoma cells (10^6 cells/ml incubation medium) is compared with binding to erythrocytes of a young healthy person (10^6 cells/ml incubation medium), because erythocytes are typical reference cells for glucose transport studies.
(§2) The incubation media are respectively:
(§3) RPMI-buffer pH=8; 11 mM in glucose, and
(§4) RPMI buffer/0.9% NaCl: 1/1.
(§5) Each 1 ml essay contains 5% of foetal calf serum and is spiked (50 μl) with 3-^125 I-phloretin (initial activity is measured).
(§6) After 15 min incubation at 37° C., the suspension is centrifuged and the precipitate is resuspended with 1 ml cold buffer which is discarded after a second centrifugation. The final radioactive precipitate is suspended in 1 ml water and measured. The bound radioactivity is related to the initial activity.

The next data set relates to erythrocytes. Kind of data set: binding of 3-125I-phloretin to erythrocytes. Further details: species or system human. The protocol: as §1, §2, §3, §4, §5, §6
Saturation binding of 3-^125 I-phloretin to 5.10^6 erythrocytes is performed in RPMI-buffer and Tris-buffer of pH 8. The binding experiments are performed at pH 8, because this is the pH of the RPMI buffer needed for optimum YAK1 cells growth. Incubation for 15 min at 37° C. Inhibition is studied by pre-incubation (15 min, 37° C.) of the erythrocytes in buffer containing 2.10^-4 M 3-Br-phloretin. After centrifugation, the Br-phloretin-containing solution is discarded and the precipitate washed with ice-cooled buffer. After a second centrifugation, the supernatant is discarded and the cells are resuspended in buffer containing 3^125 I-phloretin. After incubation for 15 min at 37° C., the same above procedure is applied. Phloretin is a weak acid (pK is approx. 7.3); only the uncharged (non-dissociated) form inhibits red cell glucose transport (Jennings et al., see above). Therefore the values mentioned hereinafter are corrected for dissociation.
When starting from small amounts (0.1×10^-10 M) N.C.A. 3-^125 I-phloretin up to higher concentrations and C.A. conditions (3-Br-phloretin used as analogue), two types of binding are observed: […]

A further data set relates to hexokinase. Kind of data set: hexokinase-model: inhibition of hexokinase-catalysed 6-phosphorilation of glucose. The class given is biochemical. From the text:
In vitro evaluation of 3-halo-phloretin compounds using the "hexokinase-model"
The "hexokinase-model" is used as a model system for the glucose-transport proteins, which play a paramount role in the glucose metabolism.
The mechanism of the glucose--glucosetransportprotein interaction and following transport through the cell membrane of glucose, as described in literature (Scientific American, January 1992, p. 32-39; Biochemistry, Vol. 28, No. 20, 1989, p. 8221-8227), and the induced-fit model described for glucose 6-phosphorilation by hexokinase (Cell Biology, 1989) show a certain analogy which let to assume, that the interaction between a potential glucose transport inhibitor with hexokinase can be a valuable in vitro model if this inhibition is competitive for glucose.
The substitution of halogen such as a bromine or iodine atom on the 3-position of the 4-hydroxyl-phenylpropion part of phloretin increases the inhibition potency as shown as follows:
Inhibition of hexokinase catalyses 6-phosphorilation of glucose by deoxyglucose, phloretin and 3-bromo-phloretin.

Data set [2] can be described thus: binding in human whole blood (RB/plasma distribution, reversibility). Format: in vitro ADME. Conditions: for blood plasma ratio at 0.25 h / blood plasma ratio: human; for blood plasma ratio at 0.25 h: 37° C., 15 min, read-out: RB/plasma ratio after re-equilibration. The protocol: In vitro experiments: binding in human whole blood
Jennings et al. [J. Gen. Phys., 1967, 67, 381] have reported the binding of phloretin to whole red blood cells. Their results let to assume that phloretin should enter the erythrocytes and bind to haemoglobine. This should mean that a phloretin-based radiotracer should not be suitable for in vivo use. Therefore the reversibility of the binding is checked. For this purpose 3-^123 I-phloretin is added to whole heparinised blood. This is centrifuged, yielding serum S-*I and red blood portion RB-*I. S-*I and non-radioactive RB (1/1) and respectively non-radioactive S and RB-*I (1/1) are incubated at 37° C. for 15 min and centrifuged. The radioactivity of all the weighed aliquots is measured in a well NaI(T1) detector.

The conditions of data set [3]: weak acid; cited from earlier work.

Take `O=C(CCc1ccc(O)c(I)c1)c1c(O)cc(O)cc1O` [3-*I-phloretin]: in data set [1] (decreased uptake in the presence of Br-phloretin), the “saturability of uptake in heart and muscle” value was “apparently saturable”. Besides, the “uptake in the lungs (L/B)” value in data set [1] (i.v. tail vein, N.C.A. and C.A.) is recorded as “high uptake in the lungs”.
Turning to `O=C(CCc1ccc(O)c(Br)c1)c1c(O)cc(O)cc1O` [3-Br--phloretin, 3-bromophloretin], the “decreased binding of 3-125I-phloretin” value in the data set on YAK1 mice lymphoma cells (co-incubation of 3-Br-phloretin, YAK1 cells, 15 min) stood at 30%. Besides, the “bound/free value of 3-125I-phloretin” value with erythrocytes (erythrocytes pre-incubated with 2×10^-4 M 3-Br-phloretin, blank 0.193, average of 5 experiments) is 0.081. For the same compound, the “inhibition of 3-125I-phloretin binding” value in the data set with erythrocytes (pre-incubation with 2×10^-4 M 3-Br-phloretin, compared with blank) amounted to 58%.
`O=C(CCc1ccc(O)c(I)c1)c1c(O)cc(O)cc1O` [3-I--phloretin, 3-I-phloretin]: in the data set on hexokinase (versus phloretin), the “potency as hexokinase inhibitor relative to the original phloretin” value is on record as “approx. 2 times”.
In the case of `O=C(CCc1ccc(O)c([125I])c1)c1c(O)cc(O)cc1O` [3-^125 I-phloretin], the “reversibility of binding to plasma-proteins and RB” value in data set [2] is given as “bound reversibly”. In addition, the blood plasma ratio at 0.25 h was found to be 0.15 in data set [2] (N.C.A. radioactivity bound to RB, re-equilibrated with non-radioactive plasma) and 0.13 in data set [2] (N.C.A. radioactivity bound to plasma, re-equilibrated with non-radioactive RB). In addition, the figures for the blood plasma ratio in data set [2] (in the presence of non-radioactive Br-phloretin or phloretin) and in data set [2] (non-carrier-added (N.C.A.) conditions) were 0.32 and 0.215, respectively. Also, the bound/free ratio in the data set with YAK1 mice lymphoma cells (N.C.A., 10^6 YAK1 cells, 15 min 37° C., average of at least 20 experiments) came to 0.048; in the data set on erythrocytes (N.C.A., 10^6 erythrocytes, 15 min 37° C., average of at least 20 experiments) it was 0.021. Besides, in the data set with YAK1 mice lymphoma cells (YAK1 versus erythrocytes), the “increase of uptake in YAK1 lymphoma cancer cells as compared to erythrocytes” value was > 2 factor. Besides, in the data set with erythrocytes (presence of 3.10^-2 -5.10^-3 M glucose), the “influence of glucose on binding” value is given as “hardly influences the binding”. In addition, the Bmax in the data set on erythrocytes (saturation binding 0.1 to 1.2 10^-10 M, Scatchard plot, pH 8) is recorded as 4.7×10^-15 mol/10^6 erythrocytee. Moreover, at erythrocytes (saturation binding 0.1 to 1.2 10^-10 M, Scatchard plot, pH 8, 15 min 37° C., corrected for dissociation, read-out: apparent Kd), the Kd was 80 pM.
As to `O=C(CCc1ccc(O)cc1)c1c(O)cc(O)cc1O` [phloretin, reference compound], the pK entry in data set [3] is “approx. 7.3”. Besides, the “type of inhibition of hexokinase activity” value in the data set on hexokinase (Lineweaver-Burck plots, versus glucose) is “competitive”.
